The values that follow are results of earlier work, collected in US20230114993A1 (priority 2019, published 2023).

The data set relates to CADASIL. Conditions: compared to placebo, CADASIL patients.

On to `COc1cc2c(cc1OC)C(=O)C(CC1CCN(Cc3ccccc3)CC1)C2` (stereo not shown) [donepezil], for which the “Treatment effect in cognitive and executive function assessments” value is given as “failed to show any treatment effect”.
